Biological target: 5-hydroxytryptamine receptor 2A (Homo sapiens, UniProt P28223)
Experiment: Ability to displace [3H]ketanserin from CHO cells expressing human 5-hydroxytryptamine 2A receptor was determined
Type: cell-based

Sequence of 5-hydroxytryptamine receptor 2A (P28223 whole entry): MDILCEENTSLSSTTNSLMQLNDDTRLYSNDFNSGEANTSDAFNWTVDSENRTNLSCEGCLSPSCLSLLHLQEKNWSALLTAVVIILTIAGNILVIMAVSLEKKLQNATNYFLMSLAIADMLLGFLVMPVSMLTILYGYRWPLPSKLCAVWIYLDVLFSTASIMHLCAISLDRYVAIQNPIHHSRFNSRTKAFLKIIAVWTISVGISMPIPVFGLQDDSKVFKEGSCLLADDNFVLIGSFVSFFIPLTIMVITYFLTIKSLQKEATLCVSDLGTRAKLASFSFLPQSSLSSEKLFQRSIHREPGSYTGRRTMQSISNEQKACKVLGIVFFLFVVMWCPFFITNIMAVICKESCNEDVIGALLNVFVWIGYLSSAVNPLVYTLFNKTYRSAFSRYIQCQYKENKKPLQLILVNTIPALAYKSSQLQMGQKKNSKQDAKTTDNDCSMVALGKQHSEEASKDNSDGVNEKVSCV

c1ccc(-c2[nH]c3ccccc3c2CCN2CCCCC2)cc1
Ki: 2.7 nM

Reference: ChEMBL document CHEMBL1132835, “Solid-phase synthesis of 2,3-disubstituted indoles: discovery of a novel, high-affinity, selective h5-HT2A antagonist” (Bioorg Med Chem Lett, 2000)
